Assay results taken from patent US7868043B2, “Mesophasic forms of (3S)-aminomethyl-5-methyl-hexanoic acid prodrugs and methods of use” (Xenoport, Inc., priority 2008, dated 2011).

Experiment: Intracolonic bioavailability in monkeys
Format: in vivo, Cynomologous monkeys
Details: monkey, whole blood; bioavailability of pregabalin (F %, (SD)) after intracolonic administration, 10 mg-eq pregabalin/kg, suspension, 4 male monkeys, blood LC-MS/MS; salts before crystallization; read-out: Intracolonic Bioavailability Fic (%)
Method: Male Cynomologous monkeys weighing about 2.3 kg were used in the studies. Monkeys were fasted overnight prior to the study until 4 hours after dosing. Water was provided ad libitum.
Calcium (3S)-{[(1R)-isobutanoyloxyethoxy]carbonylaminomethyl}-5-methyl-hexanoate (5), calcium (3S)-{[(1S)-isobutanoyloxyisobutoxy]carbonylaminomethyl}-5-methyl-hexanoate (6), or calcium (3S)-{[(1R)-benzoyloxyethoxy]carbonylaminomethyl}-5-methyl-hexanoate (7) (obtained as described in Examples 4, 8, and 12, respectively, and before crystallization according to Examples 13, 14, and 15, respectively) were prepared as a suspension (21.4 mg/mL) in 0.5% methyl cellulose/0.1% Tween-80 in NaH2PO4 pH 7.02.
Calcium (3S)-{[(1R)-isobutanoyloxyethoxy]carbonylaminomethyl}-5-methyl-hexanoate (5), calcium (3S)-{[(1S)-isobutanoyloxyisobutoxy]carbonylaminomethyl}-5-methyl-hexanoate (6), or calcium (3S)-{[(1R)-benzoyloxyethoxy]carbonylaminomethyl}-5-methyl-hexanoate (7) (1 mL/kg; 10 mg-eq pregabalin/kg) were administered intracolonically to 4 monkeys. […]
Blood samples were analyzed by a sensitive and specific LC-MS/MS method for simultaneous determination of (3S)-{[(1R)-isobutanoyloxyethoxy]carbonylaminomethyl}-5-methyl-hexanoate, (3S)-{[(1S)-isobutanoyloxyisobutoxy]carbonylaminomethyl}-5-methyl-hexanoate, or (3S)-{[(1R)-benzoyloxyethoxy]carbonylaminomethyl}-5-methyl-hexanoate; and pregabalin. […]

CC(C)C[C@H](CN)CC(=O)O [Pregabalin, (3S)-aminomethyl-5-methyl-hexanoic acid]
bioavailability: 4%
